Data as given in patent US10562912B2 (C&C Research Laboratories, priority 2013, dated 2020).

What was measured:
Assay type in all cases: cell-based
STAT3 = target: T1, STAT3 (Homo sapiens, UniProt P40763); experiment: STAT3 reporter gene assay (luciferase), LNCaP stable cell line (pSTAT3-TA-luc), IL-6 stimulation
T1 construct: plasmid pSTAT3-TA-luc), which contains a stably operating STAT3 promoter; endogenous in cells
Procedure, shortened: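 LNCaP cells stably carrying pSTAT3-TA-luc, in RPMI1640 with 3% DCC-FBS, were treated with compound and then stimulated with 10 ng/mL IL-6 for 24–48 h at 37 °C. Luciferase activity was measured in lysates. A parallel plate measured viability by CellTiter-Glo, with stimulated 0.1% DMSO wells as the positive control.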

MDA-MB-231 = experiment: Cell growth inhibition assay, breast cancer cell line MDA-MB-231; details: Homo sapiens; MDA-MB-231 breast cancer cell line, 5,000 cells/well
LNCaP = experiment: Cell growth inhibition assay, prostate cancer cell line LNCaP (medium with 10 ng/mL IL-6); details: Homo sapiens, medium supplemented with 10 ng/mL of IL-6, 10,000 cells/well

T1 sequence (P40763 whole entry): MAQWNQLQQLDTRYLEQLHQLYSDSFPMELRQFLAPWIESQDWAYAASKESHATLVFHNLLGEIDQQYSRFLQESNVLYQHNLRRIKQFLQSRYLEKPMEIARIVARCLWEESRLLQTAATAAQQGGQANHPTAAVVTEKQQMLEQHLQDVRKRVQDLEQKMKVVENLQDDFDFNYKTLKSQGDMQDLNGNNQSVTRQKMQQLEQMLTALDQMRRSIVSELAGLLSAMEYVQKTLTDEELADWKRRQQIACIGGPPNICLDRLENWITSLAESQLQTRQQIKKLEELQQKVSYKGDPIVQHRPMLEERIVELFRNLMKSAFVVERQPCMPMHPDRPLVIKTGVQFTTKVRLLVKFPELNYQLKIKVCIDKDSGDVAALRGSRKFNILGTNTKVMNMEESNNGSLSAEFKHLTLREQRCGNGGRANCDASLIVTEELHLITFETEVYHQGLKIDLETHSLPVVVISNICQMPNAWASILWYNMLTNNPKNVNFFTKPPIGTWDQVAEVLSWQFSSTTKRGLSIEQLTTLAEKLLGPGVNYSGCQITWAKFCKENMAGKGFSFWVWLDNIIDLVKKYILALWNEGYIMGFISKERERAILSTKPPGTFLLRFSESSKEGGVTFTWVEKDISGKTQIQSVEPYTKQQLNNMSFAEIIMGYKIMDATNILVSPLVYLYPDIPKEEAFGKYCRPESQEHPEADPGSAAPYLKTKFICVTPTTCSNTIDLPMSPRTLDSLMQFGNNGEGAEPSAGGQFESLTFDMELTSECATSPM

Row | Structure (SMILES) | IC50 (STAT3) [µM] | IC50 (MDA-MB-231) [µM] | IC50 (LNCaP) [µM]
1 | COc1cc(NC(=O)c2cc3cc(NS(C)(=O)=O)ccc3s2)cc(C2(c3cc(OC)cc(OC(F)(F)F)c3)CC2)c1 [Example 427, N-(3-methoxy-5-(1-(3-methoxy-5-(trifluoromethoxy)phenyl)cyclopropyl)phenyl)-5-(methylsulfonamido)benzo[b]thiophene-2-carboxamide] | 0.13 | 0.085 | 0.41
2 | CC(C)(c1cccc(NC(=O)c2cc3cc(NS(C)(=O)=O)ccc3s2)c1)c1cccc(OC(F)(F)F)c1 [Example 37, 5-(methylsulfonamido)-N-(3-(2-(3-(trifluoromethoxy)phenyl)propan-2-yl)phenyl)benzo[b]thiophene-2-carboxamide] | 0.046 | 0.016 | 0.39
3 | CS(=O)(=O)Nc1ccc2cc(C(=O)Nc3cc(-c4cccc(O)n4)cc(-c4ccc(F)cc4F)c3)[nH]c2c1 [Example 384, N-(2′,4′-difluoro-5-(6-hydroxypyridin-2-yl)-[1,1′-biphenyl]-3-yl)-6-(methylsulfonamido)-1H-indole-2-carboxamide] | > 10 | > 10 | > 10
4 | CC(C)(c1cccc(C#N)c1)c1cccc(NC(=O)c2cc3cc(NS(C)(=O)=O)ccc3s2)c1 [Example 224, N-(3-(2-(3-cyanophenyl)propan-2-yl)phenyl)-5-(methylsulfonamido)benzo[b]thiophene-2-carboxamide] | 0.26 | 0.033 | 0.27
5 | CS(=O)(=O)Nc1ccc2cc(C(=O)Nc3cc(-c4ccc(C#N)nc4)cc(-c4ccc(F)cc4F)c3)[nH]c2c1 [Example 359, N-(5-(6-cyanopyridin-3-yl)-2′,4′-difluoro-[1,1′-biphenyl]-3-yl)-6-(methylsulfonamido)-1H-indole-2-carboxamide] | > 10 | 2.6 | > 10
6 | Cc1c(C(=O)Nc2cccc(C(C)(C)c3ccc(F)cc3)c2)sc2cc(NS(C)(=O)=O)ccc12 [Example 51, N-(3-(2-(4-fluorophenyl)propan-2-yl)phenyl)-3-methyl-6-(methylsulfonamido)benzo[b]thiophene-2-carboxamide] | 0.55 | 0.62 | 3.5
7 | CS(=O)(=O)Nc1ccc2cc(C(=O)Nc3cc(-c4ccsc4)cc(-c4ccc(F)cc4F)c3)[nH]c2c1 [Example 355, N-(2′,4′-difluoro-5-(thiophen-3-yl)-[1,1′-biphenyl]-3-yl)-6-(methylsulfonamido)-1H-indole-2-carboxamide] | 0.21 | 0.28 | 1.8
8 | COc1cc2cc(C(=O)Nc3cccc(-c4ccc(F)cc4F)c3)[nH]c2cc1NS(C)(=O)=O [Example 236, N-(2′,4′-difluoro-[1,1′-biphenyl]-3-yl)-5-methoxy-6-(methylsulfonamido)-1H-indole-2-carboxamide] | 0.31 | 0.41 | 2.7
9 | CS(=O)(=O)Nc1ccc2cc(C(=O)Nc3cccc(S(=O)(=O)c4cccc(N)c4)c3)[nH]c2c1 [Example 415, N-(3-((3-aminophenyl)sulfonyl)phenyl)-6-(methylsulfonamido)-1H-indole-2-carboxamide] | 6.8 | 8.4 | > 10
10 | CNS(=O)(=O)Nc1ccc2cc(C(=O)Nc3cc(Br)cc(-c4ccc(F)cc4F)c3)[nH]c2c1 [Example 307, N-(5-bromo-2′,4′-difluoro-[1,1′-biphenyl]-3-yl)-6-((N-methylsulfamoyl)amino)-1H-indole-2-carboxamide] | 1.1 | 0.84 | 4.8
11 | CN(C)c1cc(NC(=O)c2cc3ccc(NS(C)(=O)=O)cc3[nH]2)cc(-c2ccc(F)cc2F)c1 [Example 372, N-(5-(dimethylamino)-2′,4′-difluoro-[1,1′-biphenyl]-3-yl)-6-(methylsulfonamido)-1H-indole-2-carboxamide] | 0.34 | 0.46 | 3.5
12 | CC(C)(c1cc(Br)cc(NC(=O)c2cc3ccc(NS(C)(=O)=O)cc3[nH]2)c1)c1cccc(OC(F)F)c1 [Example 20, N-(3-bromo-5-(2-(3-(difluoromethoxy)phenyl)propan-2-yl)phenyl)-6-(methylsulfonamido)-1H-indole-2-carboxamide] | 0.29 | 0.15 | 1.1
13 | CS(=O)(=O)Nc1ccc2cc(C(=O)Nc3cc(-c4ccc[nH]4)cc(-c4ccc(F)cc4F)c3)[nH]c2c1 [Example 352, N-(2′,4′-difluoro-5-(1H-pyrrol-2-yl)-[1,1′-biphenyl]-3-yl)-6-(methylsulfonamido)-1H-indole-2-carboxamide] | 0.82 | 2.4 | 7.6
14 | CC(C)(c1ccc(F)cc1)c1cccc(NC(=O)c2cc3ccc(S(C)(=O)=O)cc3[nH]2)c1 [Example 6, N-(3-(2-(4-fluorophenyl)propan-2-yl)phenyl)-6-(methylsulfonyl)-1H-indole-2-carboxamide] | > 10 | > 10 | > 10
15 | CC(C)(c1cccc(NC(=O)c2cc3cc(NS(C)(=O)=O)ccc3s2)c1)c1ccccc1F [Example 31, N-(3-(2-(2-fluorophenyl)propan-2-yl)phenyl)-5-(methylsulfonamido)benzo[b]thiophene-2-carboxamide] | 0.19 | 0.026 | 0.49
16 | CNS(=O)(=O)Nc1ccc2cc(C(=O)Nc3cccc(-c4ccccc4C(F)(F)F)c3)[nH]c2c1 [Example 269] | 2.3 | 2.1 | 4.1
17 | CC(O)(c1ccccc1)c1cccc(NC(=O)c2cc3ccc(NS(C)(=O)=O)cc3[nH]2)c1 (stereo not drawn) [Example 435, N-(3-(1-hydroxy-1-phenylethyl)phenyl)-6-(methylsulfonamido)-1H-indole-2-carboxamide] | 5.8 | 4.3 | > 10
18 | CS(=O)(=O)Nc1ccc2sc(C(=O)Nc3cccc(C4(c5ccc(F)cc5)CC4)c3)cc2c1 [Example 424, N-(3-(1-(4-fluorophenyl)cyclopropyl)phenyl)-5-(methylsulfonamido)benzo[b]thiophene-2-carboxamide] | 0.15 | 0.1 | 0.5
19 | CS(=O)(=O)Nc1ccc2cc(C(=O)Nc3cccc(C4(c5ccccc5)CC4)c3)[nH]c2c1 [Example 422, 6-(methylsulfonamido)-N-(3-(1-phenylcyclopropyl)phenyl)-1H-indole-2-carboxamide] | 0.76 | 0.54 | 2.1
20 | Cc1c(C(=O)Nc2cccc(C(C)(C)c3ccc(F)cc3)c2)sc2ccc(NS(C)(=O)=O)cc12 [Example 52, N-(3-(2-(4-fluorophenyl)propan-2-yl)phenyl)-3-methyl-5-(methylsulfonamido)benzo[b]thiophene-2-carboxamide] | 1.5 | 0.7 | 4.7
21 | CC(C)(c1cc(Br)cc(NC(=O)c2cc3ccc(NS(C)(=O)=O)cc3[nH]2)c1)c1cc(OC(F)(F)F)ccc1F [Example 23, N-(3-bromo-5-(2-(2-fluoro-5-(trifluoromethoxy)phenyl)propan-2-yl)phenyl)-6-(methylsulfonamido)-1H-indole-2-carboxamide] | 0.045 | 0.028 | 0.17
22 | CC(C)(c1ccccc1)c1cccc(NC(=O)c2cc3ccc(NS(C)(=O)=O)cc3[nH]2)c1 [Example 2, 6-(methylsulfonamido)-N-(3-(2-phenylpropan-2-yl)phenyl)-1H-indole-2-carboxamide] | 0.2 | 0.14 | 5.3
23 | Cn1cccc1-c1cc(NC(=O)c2cc3ccc(NS(C)(=O)=O)cc3[nH]2)cc(-c2ccc(F)cc2F)c1 [Example 353, N-(2′,4′-difluoro-5-(1-methyl-1H-pyrrol-2-yl)-[1,1′-biphenyl]-3-yl)-6-(methylsulfonamido)-1H-indole-2-carboxamide] | 0.76 | 0.44 | 2.4
24 | CC(C)(c1ccc(F)cc1)c1cc(NC(=O)c2cc3ccc(NS(C)(=O)=O)cc3[nH]2)cc(OC(F)F)c1 [Example 17, N-(3-(difluoromethoxy)-5-(2-(4-fluorophenyl)propan-2-yl)phenyl)-6-(methylsulfonamido)-1H-indole-2-carboxamide] | 0.14 | 0.19 | 0.92
25 | CC(=O)c1cc(NC(=O)c2cc3ccc(NS(C)(=O)=O)cc3[nH]2)cc(-c2ccc(F)cc2F)c1 [Example 245, N-(5-acetyl-2′,4′-difluoro-[1,1′-biphenyl]-3-yl)-6-(methylsulfonamido)-1H-indole-2-carboxamide] | 1.4 | 2.6 | 4.9
26 | COc1cc(NC(=O)c2cc3ccc(NS(C)(=O)=O)cc3[nH]2)cc(C(C)(C)c2cccc(OC(F)(F)F)c2)c1 [Example 4, N-(3-methoxy-5-(2-(3-(trifluoromethoxy)phenyl)propan-2-yl)phenyl)-6-(methylsulfonamido)-1H-indole-2-carboxamide] | 0.34 | 0.052 | 0.82
27 | CC(C)(c1ccc(F)cc1)c1cccc(NC(=O)c2cc3cc(NS(C)(=O)=O)ccc3s2)c1 [Example 26, N-(3-(2-(4-fluorophenyl)propan-2-yl)phenyl)-5-(methylsulfonamido)benzo[b]thiophene-2-carboxamide] | 0.059 | 0.008 | 0.36
28 | CS(=O)(=O)Nc1ccc2sc(C(=O)Nc3cc(OC(F)F)cc(-c4ccc(F)cc4F)c3)cc2c1 [Example 370, N-(5-(difluoromethoxy)-2′,4′-difluoro-[1,1′-biphenyl]-3-yl)-5-(methylsulfonamido)benzo[b]thiophene-2-carboxamide] | 0.21 | 0.032 | 0.6
